Experimental data: patent US8158589B2, “Peptides with the capacity to bind to transforming growth factor β1 (TGF-β1)” (Proyecto Biomedicine Cima, S.L., priority 2003, dated 2012)
Ends that are not written are not given here.

Each molecule was assayed against T1, TGF-β1 (Mus musculus, UniProt P04202) (assay: Model of acute liver damage induced by CCl4, type I collagen mRNA by real time PCR). Details: Balb/C mice, oral CCl4, 50 μg of peptide every 24 h, sacrifice after 72 hours.
T1 construct: from tissue; host or cells: liver of Balb/C mice (CCl4 model); lung of C57BL/6 mice (bleomycin model)
T1 sequence (P04202 279-390 limits assumed): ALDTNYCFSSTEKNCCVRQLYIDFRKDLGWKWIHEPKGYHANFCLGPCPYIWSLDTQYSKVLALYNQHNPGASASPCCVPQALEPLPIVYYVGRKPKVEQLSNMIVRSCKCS
Type: in vivo, mice
Protocol: Acute liver damage generates a cascade of effects and physiological responses, including elevations in the concentrations of TGF-β1. This elevation is responsible for the expression of the type I collagen gene, among others. In this model of acute liver damage, female Balb/C mice weighing 25 to 30 g, were orally administered a dose of 2 μl of CCl4 (per gram of body weight) dissolved in an equivalent volume of corn oil (volumetric ratio of 1:1). The control group received an equivalent volume of corn oil only, and the treated groups received (following the single oral administration of CCl4 in corn oil) 50 μg of peptide in 500 μl of 1% physiological saline solution in DMSO (dimethyl sulfoxide) every 24 h. After 72 hours all animals were sacrificed, and the liver samples were processed. To evaluate mRNA expression, liver tissue was frozen in liquid nitrogen and stored at −80° C. until further use. Other liver tissue samples were stored in OCT® or Tissue-Tek® (Sakura Finetek B.V.) and processed in the same way as the samples used for mRNA studies. Other liver samples were fixed in 10% buffered formalin solution, embedded in paraffin and processed for their histological evaluation. The amount of mRNA encoding type I collagen was quantified in all groups using a quantitative polymerase chain reaction (PCR) technique. […] The capacity of the testing peptides to block the acute damage, as assessed by measuring the levels of induced type I collagen mRNA was quantified by real time PCR. […] The peptides tested were obtained by conventional solid peptide synthesis procedures (Merrifield R B. J Am Chem Soc 1963; 85:2149-2154; Atherton E et al. J Chem Soc Perkin Trans 1981; 1:538-546).

Row | Molecule | % Inhibition of type I collagen mRNA induction (in vivo TGF-β1 biological activity)
1 | RKWFLQHRRMPVSVL [SEQ ID NO: 13] | 32.70%
2 | RLAHSHRHRSHVALT [SEQ ID NO: 4] | 51.30 ± 15.3%
3 | SGRRHLHRHHIFSLP [SEQ ID NO: 14] | 49.84 ± 24%
4 | WHKYFLRRPLSVRTR [SEQ ID NO: 11] | 39.34 ± 21.9%
5 | RFFTRFPWHYHASRL [SEQ ID NO: 3] | 2.09%

Same assay, conditions: acute liver damage, type I collagen mRNA

Row | Molecule | inhibition of the biological activity of TGF-β1 in vivo (in words)
6 | RKWFLQHRRMPVSVL [SEQ ID NO: 13] | inhibitory capacity
7 | RLAHSHRHRSHVALT [SEQ ID NO: 4] | inhibitory capacity
8 | SGRRHLHRHHIFSLP [SEQ ID NO: 14] | inhibitory capacity
9 | WHKYFLRRPLSVRTR [SEQ ID NO: 11] | inhibitory capacity
10 | RFFTRFPWHYHASRL [SEQ ID NO: 3] | much less active

The molecules below were run against T2, TGF-β1 (Rattus norvegicus, UniProt P17246) (assay: Corneal fibrosis and haze after 1 N NaOH damage, topical eye drops, photographs analysed with ImageJ). Details: first experiment, Group 1.
T2 construct: from tissue; host or cells: cornea of Long-Evans rats
T2 sequence (P17246 279-390 limits assumed): as the sequence (P04202 279-390 limits assumed) above
Type: in vivo, Long-Evans rats
Text: Male Long-Evans rats aged 10 weeks were used, divided into 5 groups: • Group 1: 12 rats, 6 treated with dexamethasone and 6 treated with mitomycin C • Group 2: 12 rats, 6 treated with p17 of the first formulation (see section 6.1.2.b) and 6 treated with p144 of the first formulation (see section 6.1.2.b) • Group 3: 12 rats, 6 treated with p17 of the second formulation (see section 6.1.2.b) and 6 treated with p144 of the second formulation (see section 6.1.2.b) • Group 4: 12 rats, 6 treated with p17 of the third formulation (see section 6.1.2.b) and 6 treated with p144 of the third formulation (see section 6.1.2.b) • Group 5: 12 rats, 6 treated with p17 of the fourth formulation (see section 6.1.2.b) and 6 treated with p144 of the fourth formulation (see section 6.1.2.b) • Group 6: 12 rats, 6 treated with p17 of the fifth formulation (see section 6.1.2.b) and 6 treated with p144 of the fifth formulation (see section 6.1.2.b)
To perform the damage in the cornea, the animals were anesthetized with isoflurane and a 5 mm Whatman paper disc impregnated in 1 N NaOH for 30 seconds was applied to them in the central part of the eye. After the damage, they were washed with abundant physiological saline serum and an antibiotic ointment was applied to them to prevent possible infections in the affected area.
After conducting several in vivo studies with the previously described groups of animals, it could be concluded that the chemical damage occurring after the application of NaOH for 30 seconds caused an excessive lesion for the study which was to be conducted, therefore it was decided to conduct new experiments reducing the time to 15 seconds.
It was randomly established that the left eye of each animal would act as a control and that the right eye would be the treated eye, such that the same animals acts as a control in addition to being treated. It must be pointed out that all the animals received antibiotic treatment in both eyes daily only during the first week of the study for the purposes of avoiding microbial keratitis.
Starting from 0.15% sodium hyaluronate (Hyabak 10 mL, Thea) without preservatives: • p144: 20 mg were dissolved in 5 ml of eye drops, 40 μl of saturated concentrated NaOH were incorporated, stirring and adding in portions of 5 μl. It was sonicated until solubilization. To adjust the pH, 500 μl of 1M Hepes were added, such that the pH changed from 10.5 to 7 • p144 control: 40 μl of saturated NaOH and 500 μl of 1 M HEPES (final concentration of HEPES 50 mM) • p17: 20 mg were dissolved in 5 ml of the eye drops, it was sonicated until complete solubilization and it was incorporated to the vial with a 10 ml syringe and a blue needle to perforate the filter of the contained (final concentration 2 mg/ml) • p17 control: non-manipulated eye drops • Note: The formulations were maintained at 4° C. throughout the study.
The administration of the treatment was initiated twenty-four hours after the damage. After that time a follow-up of the damage was performed, which consisted of taking photographs at days 0, 7, 14, 21, 28 and 35. To take the photographs the animals were anesthetized with isoflurane. Photographs were taken of both the control eye (left) and of the treated eye (right) with and without fluorescein. The photographs with fluorescein allowed to observe the evolution of the epithelial closure of the generated lesion, whereas the photographs without fluorescein show the evolution of the haze of the lesioned area. […]

Row | Molecule | clinical efficacy in the treatment of corneal fibrosis
11 | CO[C@@]12[C@H](COC(N)=O)C3=C(C(=O)C(C)=C(N)C3=O)N1C[C@@H]1N[C@@H]12 [mitomycin C] | correspond to those described in the scientific literature

Each molecule was assayed against T3, TGF-β1 (Homo sapiens, UniProt P01137) (assay: Biopanning of phage-displayed 15-aa peptide library on biotinylated TGF-β1, number of colonies per sequence). Details: clones carrying the sequence among 108 colonies after the last biopanning cycle; approximate indication of affinity for TGF-β1.
T3 sequence (P01137 279-390 limits assumed, species assumed): as the sequence (P04202 279-390 limits assumed) above, with S75A counted along it
Type: binding
Design: purchased Roche; host or cells: added to Mv-1-Lu (CCL-64) mink lung epithelial cells
Text: These libraries comprise a plurality of filamentous bacteriophages (M13), each one containing a peptide genetically fused to a protein of the virus envelope—in this case bound to the N-terminal end of envelope protein pIII (FIG. 1). […] In the phage libraries, the sequence encoding the peptide originates from a sequence degenerated in each one of the 15 positions with the 20 natural amino acids, thus allowing the presentation of 1.1×10^12 possible sequences of 15 amino acids in different phages. The physical ratio, 1:1, between the peptide sequence and the DNA encoding it within the bacteriophage allows the selection (from a broad range of variants) of those sequences that specifically bind to TGF-β1. This process is carried out via an in vitro selection protocol known as “biopanning”.
This technique involves incubating a set of phages representative (to practical effects) of all the 15-aa variants, in a plate blocked with streptavidin (10 μg/ml in 0.1 M NaHCO3, during 2 h at room temperature) to which biotinylated TGF-β1 is added. […] TGF-β1 contacts the peptides carried by the phages at a concentration of […]. After about 12 hours incubation, unbound phages are eliminated by 5 washings with PBS/Tween (phosphate buffered saline/polyoxyalkylene derivatives of sorbitan fatty acid esters). […] The eluted phages are then amplified by infection in a bacterial strain (E. coli). The process is repeated three cycles so that an enrichment in the content of phages which specifically bind, and with high affinity, to TGF-β1 is achieved (FIG. 3). […] Thus, the phages selected in each cycle show more and more affinity for TGF-β1. At the end of the process, phages which have been selected for their affinity for TGF-β1, are sequenced by using primers, after isolation by tetracycline resistance of the genetically modified phages after infecting E. coli cells. […] The number of times which a sequence is repeated, corresponding to a 15 amino acids peptide carried by each clone, from the total of sequenced colonies is an indication of the degree of relative affinity of said 15 amino acids sequence for TGF-β1.
The selection of clones, obtained from the “biopanning”, was carried out by selection of the bacterial colonies infected with the phages in the presence of a bacterial antibiotic; the bacteria resistance is acquired by a tetracycline resistance gene encoded by the phage genome. Thus, only those colonies infected with bacteriophages are able to grow. This means that each colony contains the genome of only one phage coding for only one peptide presented in its surface.
A total number of 108 colonies of phage-infected bacteria were obtained from the last selection cycle of “biopanning”. The sequence of the regions coding for the peptides present in the pIII protein was carried out using primers identified with SEQ ID NO: 23. This table also reflects the number of colonies (clones) carrying said sequences.
The number of clones (colonies) of each sequence gives an approximate indication of the degree of affinity of the peptide for TGF-β1, that is, the more colonies the more binding affinity.

Row | Molecule | No. colonies
12 | RLAHSHRHRSHVALT [SEQ ID NO: 4] | 18
13 | RFFTRFPWHYHASRL [SEQ ID NO: 3] | 41

Further lines, results first:

Row | No. colonies | Molecule
14 | 6 | RKWFLQHRRMPVSVL [SEQ ID NO: 13]
15 | 2 | SGRRHLHRHHIFSLP [SEQ ID NO: 14]
16 | 4 | WHKYFLRRPLSVRTR [SEQ ID NO: 11]

These molecules were tested against T3, TGF-β1 (assay: not given). Details: Mv-1-Lu proliferation.
Type: cell-based
Design: purchased Roche; host or cells: added to Mv-1-Lu (CCL-64) mink lung epithelial cells
Text: The cell line Mv-1-Lu (CCL-64, […], Virginia, USA) derives from mink pulmonary epithelium, grows as a monolayer, and responds to the presence of TGF-β1 by decreasing its proliferation (FIG. 5). Thus, the peptide-mediated inhibition of this cytokine is able to restore cell growth and reflects the capacity of the different peptides to inhibit the biological activity of TGF-β1 in vitro. The peptides tested were obtained by peptide synthesis, in accordance to conventional procedures (Merrifield R B. J Am Chem Soc 1963; 85:2149-2154; Atherton E et al. J Chem Soc Perkin Trans 1981; 1:538-546).
The Mv-1-Lu cells are cultured to confluence in complete medium [RPMI-1640 supplemented with L-glutamine, sodium pyruvate, antibiotics and 10% fetal bovine serum (FBS)] at 37° C. and in 5% CO2 in 162 cm^2 bottles (Costar Corporation, CA, USA). Following trypsinization, the cells are cultured in 200 μl of complete medium in 96-well plates at an initial density of 5,000 cells/well at 37° C. and in 5% CO2 during 6 hours to ensure adhesion. Then, different concentrations of the peptides to be tested are added, starting from 200 μg/ml, and following 200 pg/ml of TGF-β1 (Roche) are added. After 12 hours of incubation 1 μCi of methyl-3H-thymidine (Amersham Life Science, Buckinghamshire, United Kingdom) is added per well in 25 μl of clean medium (RPMI-1640). The plate is incubated for 12 more hours under the same conditions. Finally, the cells are harvested (Filtermate 196 Harvester, Packard), transferring the tritiated thymidine, incorporated in the course of DNA synthesis, to plates (UniFilter-96 GF/C®, Perkin Elmer). Following the addition of scintillation fluid, the radioactivity was quantified using a scintillation counter (Top Count, Microplate Scintillation Counter, Packard). As positive and negative control, use was made of the incorporation of tritiated thymidine in the absence and presence of TGF-β1, respectively. The inhibition of TGF-β1 activity in this test was calculated based on the following formula: […]
The negative control represents the incorporation of tritiated thymidine in the presence of TGF-β1 but in the absence of peptide, whereas the positive control refers to the incorporation of tritiated thymidine in the absence of TGF-β1 and peptide. Thus, according to the capacity of the peptides to revert the cytokine repressor effect on Mv-1-Lu cell line proliferation, percentage of TGF-β1 biological activity inhibition by the peptides can be measured (Table 2).
Comparisons have been made of the activity of truncated peptides (derived from peptide sequence SEQ ID NO: 17) versus the complete sequence, in terms of the capacity to revert the suppressor effect of TGF-β1 upon proliferation of the Mv-1-Lu cell line. To this effect, and to determine the minimum sequence of peptide SEQ ID NO: 17 capable of inhibiting the biological activity of TGF-β1 in vitro, truncated versions of this peptide were synthesized, with truncation at the N-terminal end, C-terminal end or in both ends of the molecule. The peptides tested were obtained by peptide synthesis following conventional procedures (Merrifield R B. J Am Chem Soc 1963; 85:2149-2154; Atherton E et al. J Chem Soc Perkin Trans 1981; 1:538-546). Following the same methodology described in Example 2, the activity of truncated peptides versus the complete sequence of the peptide SEQ ID NO: 17 was quantified, in terms of a proliferation assay of the Mv-1-Lu cell line.

Row | Molecule | inhibition of the biological activity of TGF-β1 in vitro (in words)
17 | RLAHSHRHRSHVALT [SEQ ID NO: 4] | inhibitory capacity
18 | RFFTRFPWHYHASRL [SEQ ID NO: 3] | only inhibitory activity

The next lines start with the values.

Row | inhibition of the biological activity of TGF-β1 in vitro (in words) | Molecule
19 | inhibitory capacity | RKWFLQHRRMPVSVL [SEQ ID NO: 13]
20 | inhibitory capacity | SGRRHLHRHHIFSLP [SEQ ID NO: 14]
21 | inhibitory capacity | WHKYFLRRPLSVRTR [SEQ ID NO: 11]
